Converted amounts (≈) assume the structure as drawn.
Key:
[1] = Stability in mouse blood assessed as compound remaining measured at - 80 degC for 4 months
[2] = test system: CAL-27; test: cells; assay type: functional, cell-based; details: Homo sapiens, CAL-27, 72 h
[3] = test system: SCC-9; test: cells; assay type: functional, cell-based; details: Homo sapiens, SCC-9, 72 h
[4] = in vivo; details: C57BL/6, mouse, ip, 500 mg/kg
[5] = Stability in mouse blood assessed as compound recovery measured at 25 degC for 4 hrs
[6] = Stability in mouse blood assessed as compound remaining measured at 20 degC for 8 hrs
[7] = in vivo; details: C57BL/6, mouse, ip, 500 mg/kg; remark: listed apart in the source
[8] = Volume of distribution in C57BL/6 mouse at 500 mg/kg, iv administered as Antitumor B; details: in vivo
[9] = in vivo; details: C57BL/6, mouse, ip, 500 mg/kg; remark: listed apart in the source
[10] = in vivo; details: C57BL/6, mouse, ip, 500 mg/kg; remark: listed apart in the source
[11] = mouse, in vivo, iv, 500 mg/kg
[12] = in vivo; details: C57BL/6, mouse, po, 4000 mg/kg
[13] = Clearance in C57BL/6 mouse at 500 mg/kg, iv administered as Antitumor B; details: in vivo
[14] = Half life in C57BL/6 mouse at 4000 mg/kg, po; details: in vivo
[15] = in vivo, po, 4000 mg/kg, 24 h
[16] = in vivo, ip, 500 mg/kg, 24 h
[17] = in vivo, ip, 500 mg/kg, 24 h; remark: listed apart in the source
[18] = in vivo; details: C57BL/6, mouse, po, 500 mg/kg
[19] = in vivo, ip, 500 mg/kg, 168 h
[20] = in vivo; details: C57BL/6, mouse, iv, 500 mg/kg
[21] = Half life in C57BL/6 mouse at 500 mg/kg, ip qd measured after 7 days; details: in vivo, 168 h
[22] = in vivo, po, 500 mg/kg, 24 h
[23] = mouse, in vivo, po, 500 mg/kg
[24] = in vivo; details: C57BL/6, mouse, po, 4000 mg/kg; remark: listed apart in the source
[25] = in vivo, ip, 500 mg/kg, 168 h; remark: listed apart in the source
[26] = mouse, in vivo, iv, 500 mg/kg, 24 h
[27] = in vivo; details: C57BL/6, mouse, po, 500 mg/kg; remark: listed apart in the source
[28] = in vivo; details: C57BL/6, mouse, iv, 500 mg/kg; remark: listed apart in the source
[29] = in vivo; details: C57BL/6, mouse, po, 500 mg/kg; remark: listed apart in the source
[30] = Half life in C57BL/6 mouse at 500 mg/kg, iv administered as Antitumor B; details: in vivo
[31] = in vivo; details: C57BL/6, mouse, po, 4000 mg/kg; remark: listed apart in the source
[32] = in vivo; details: C57BL/6, mouse, po, 4000 mg/kg; remark: listed apart in the source
[33] = C57BL/6, mouse, in vivo, ip, 500 mg/kg, 168 h
[34] = Half life in C57BL/6 mouse at 500 mg/kg, po; details: in vivo
[35] = in vivo; details: C57BL/6, mouse, po, 500 mg/kg; remark: listed apart in the source

| SMILES | remaining at 2920 h [1] | IC50 [2] | IC50 [3] | AUC at 24 h [4] | remaining at 4 h [5] | remaining at 8 h [6] | MRT at 168 h [7] | Vd [8] | MRT at 24 h [9] | AUC at 168 h [10] | AUC [11] | AUC(0-inf) [12] | CL ([13]; mouse) | half-life [14] | Cmax [20] | Tmax [24] | MRT last [28] | half-life [30] | MRT last [31] | Cmax [32] | further results |
| --- | --- | --- | --- | --- | --- | --- | --- | --- | --- | --- | --- | --- | --- | --- | --- | --- | --- | --- | --- | --- | --- |
| COc1c2ccccc2nc2occc12 [DICTAMNINE] | 85% | 19.7 µg/mL (≈ 98.9 µM) | 27.8 µg/mL (≈ 140 µM) | 1 ng·h/mL | 85% | 85% | 11.7 h | 0.6 L/kg | 0.4 h | 23.2 ng·h/mL | – | – | – | – | – | – | – | – | – | – | – |
| O=c1[nH]cc(F)c(=O)[nH]1 [FLUOROURACIL] | – | 0.5 µg/mL (≈ 3.84 µM) | 12.7 µg/mL (≈ 97.6 µM) | – | – | – | – | – | – | – | – | – | – | – | – | – | – | – | – | – | – |
| Oc1ccc2c(c1)OCC1c3cc4c(cc3OC21)OCO4 (configuration not stated) | 85% | 11.5 µg/mL (≈ 40.5 µM) | 94.9 µg/mL (≈ 334 µM) | 5.6 ng·h/mL | 85% | 85% | 8.4 h | 4.1 L/kg | 0.3 h | 47.4 ng·h/mL | 71.5 ng·h/mL | 27.5 ng·h/mL | 10 mL/min/kg | 3.5 h | 67.5 ng/mL | 0.7 h | 3 h | 4.9 h | 3.6 h | 16.4 ng/mL | AUC ([15]; mouse): 25.5 ng·h/mL; Tmax ([16]; mouse): 0.2 h; Cmax ([17]; mouse): 15.6 ng/mL; MRT last [18]: 0.6 h; AUC ([19]; mouse): 51.8 ng·h/mL; t1/2 ([21]; mouse): 2.2 h; AUC ([22]; mouse): 0.4 ng·h/mL; F [23]: 4.6%; Cmax ([25]; mouse): 17.2 ng/mL; AUC [26]: 68.9 ng·h/mL; Tmax [27]: 0.6 h; Cmax [29]: 0.5 ng/mL |
| CC1=C2C(=O)O[C@@H](c3ccoc3)[C@]2(C)CCC1 [FRAXINELLONE] | 85% | 22.4 µg/mL (≈ 96.4 µM) | 43.4 µg/mL (≈ 187 µM) | 2.7 ng·h/mL | 85% | 85% | – | 2.9 L/kg | 0.6 h | – | 166.8 ng·h/mL | – | 6.7 mL/min/kg | – | 34.3 ng/mL | 0.5 h | 3.2 h | 5.2 h | 0.4 h | 4.7 ng/mL | AUC ([15]; mouse): 1.1 ng·h/mL; Cmax ([17]; mouse): 4.1 ng/mL; F [23]: 0.2%; AUC [26]: 95.2 ng·h/mL |
| O=C1CCC[C@@H]2[C@H]3CCCN4CCC[C@@H](CN12)[C@@H]34 [MATRINE] | 85% | 21 µg/mL (≈ 84.6 µM) | > 100 µg/mL | 1480 ng·h/mL | 85% | 85% | 8 h | 9.1 L/kg | 5.3 h | 1650 ng·h/mL | 5170.7 ng·h/mL | 5370 ng·h/mL | – | 7.5 h | 3930 ng/mL | 0.7 h | 1.8 h | 7.5 h | 4.5 h | 709 ng/mL | CL ([13]; C57BL/6, mouse): 13 mL/min/kg; AUC ([15]; C57BL/6, mouse): 3667.7 ng·h/mL; Tmax ([16]; C57BL/6, mouse): 0.2 h; Cmax ([17]; C57BL/6, mouse): 815.9 ng/mL; MRT last [18]: 3.6 h; AUC ([19]; C57BL/6, mouse): 2254 ng·h/mL; t1/2 ([21]; C57BL/6, mouse): 8.2 h; AUC ([22]; C57BL/6, mouse): 120.5 ng·h/mL; Tmax [33]: 0.5 h; half-life [34]: 3.8 h; Cmax ([25]; C57BL/6, mouse): 551.8 ng/mL; Tmax [27]: 0.4 h; AUC(0-inf) [35]: 124 ng·h/mL; Cmax [29]: 53.8 ng/mL |

From ChEMBL document CHEMBL5036337 (J Nat Prod, 2021)
